Consider three molecules from patent US20070259894A1, “Use of Atazanavir for Improving the Pharmacokinetics of Drugs Metabolized by Ugt1a1” (priority 2004, published 2007).

The subject of series [1] is glucuronidation of Compound A by rat liver microsomes. Put plainly: Inhibition by atazanavir of glucuronidation of Compound A by rat liver microsomes. The note with it: atazanavir at a concentration of 50 μM. The series is classed as biochemical. As for the experimental part: The IC50 value of atazanavir for inhibition of glucuronidation of Compound A by human liver microsomes was determined using a pool of human liver microsomes (obtained from Xenotech LLC, Lenexa, Kans.). Compound A (as the potassium salt) was added to human liver microsomes (1.0 mg/mL) in a buffer consisting of 0.1 M potassium phosphate buffer (pH=7.4), 5 mM magnesium chloride, 10 μg/mL alamethicin, and 10 mM D-saccharic acid 1,4-lactone. The mixture of Compound A and the buffered microsomes (0.5 mL) was incubated at Compound A's Km (200 μM). UDPGA was added to the incubated sample to a concentration of 4 mM to initiate the glucuronidation reaction, which was stopped after 25 minutes (37° C.) with 2 volumes (i.e., 1 mL) of acetonitrile containing 1.5 μM of Compound B as an internal standard for the subsequent LC/MS analysis. Each of the samples was then centrifuged and the resulting supernatant was diluted 1:1 with 0.1% formic acid in water and a 10 μL aliquot was injected onto the LC/MS to determine the amount of glucuronide formation. […]
The IC50 value of atazanavir for inhibition of glucuronidation of Compound A in the presence of rat liver microsomes was determined using a procedure similar to that just described above for human liver microsomes.
For orientation: Microsomes from liver hold many membrane-bound enzymes, among them those of drug oxidation.

A short description of series [2]: In vivo rat studies: plasma levels of Compound A with and without atazanavir. Also on record: species or system Male Sprague-Dawley rats. The following applies: for AUC / Cmax: male, Sprague-Dawley, plasma. As for the experimental part:
Male Sprague-Dawley rats (4 rats/group) weighing approximately 300 grams each were given orally either 0.5% methylcellulose in water (control group) or atazanavir in 0.5% methylcellulose once a day for three days. The atazanavir daily doses were 50 mg/kg and were administered in 0.5% methylcellulose at 5 mL/kg. On day four the control rats were dosed with 10 mg/kg of Compound A in the form of a potassium salt in 0.5% methylcellulose while the treatment group received atazanavir followed by an oral dose of 10 mg/kg of Compound A (as potassium salt) in 0.5% methylcellulose. Blood samples were taken from all rats in treatment and control groups at 0, 0.25, 0.5, 1, 2, 4, 6, 8, and 24 hours post dose on day 4. Plasma levels of Compound A were determined by LC-MS/MS as follows:
UDP-glucuronosyltransferase activity was determined by measuring the formation of the glucuronide of Compound A. HPLC analysis was carried out on an Agilent HP 1100 gradient system using the following parameters: column=Phenomenex Luna C18-2 (2 mm×150 mm, 5 μm); mobile phase=0.1% formic acid in water (solvent A) and 0.1% formic acid in acetonitrile (solvent B); flow rate=0.2 mL/min; procedure=the initial solvent composition of 10% B was increased to 80% B over 10 minutes, followed by holding solvent B constant at 80% for 3 minutes, and then returning to initial conditions for 6 minutes. The HPLC system was interfaced with a Finnigan TSQ Quantum tandem mass spectrometer. Mass spectral analyses were carried out using electrospray ionization (ESI) in the positive ion mode. The temperature for the ion transfer tube was 320° C. and the ESI ionizing voltage was maintained at 4.4 kV for all analyses. Tandem mass spectrometry (MS/MS) was based on collision-induced dissociation (CID) of ions entering the rf-only octapole region where argon was used as the collision gas at a pressure of 0.8 mtorr. A collision offset at −22 eV was used for MS/MS analyses. The CID transitions used were m/z=621.1→445.1 (Compound A glucuronide) and 431.2→306.1 (Compound B).

Series [3] is described as follows: In vivo human studies: plasma PK of Compound A with and without atazanavir. Also on record: species or system healthy human male volunteers. The note with it: for half-life: male, plasma, oral, read-out: alpha phase half-life (converted). As for the experimental part:
The protocol was a 2-period, fixed sequence study in healthy human male volunteers to examine the influence of multiple doses of atazanavir on a single dose of Compound A. In Period 1, 12 subjects received a single oral dose of 100 mg of Compound A (i.e., a tablet as described in Part B of Example 3) (N=10) or placebo (N=2). In Period 2, the same 12 subjects were administered 400 mg atazanavir once daily in an open-label fashion (capsules) for 9 days. On Day 7, the subjects were administered atazanavir in combination with a single oral dose of 100 mg of Compound A (tablet) or placebo (the same subjects received placebo in both study periods). All doses were administered following a moderate-fat meal. Plasma PK samples were collected for 72 hours following the dose of Compound A in both periods.
Sample preparation and analysis: The plasma samples were extracted using 96-well liquid-liquid extraction. Plasma extracts were injected onto an Ace C18 (50×3.0 mm, 3 μm, titanium rits) HPLC column and analyzed under isocratic conditions with a mobile phase consisting of 42.5/57.5 (v/v %) 0.1 mM EDTA in 0.1% formic acid/methanol, at a flow rate of 0.5 mL/minute. The sample extracts were ionized using an APCI interface and were monitored by MRM in the positive ionization mode. The dynamic range of the LC/MS/MS assay was 2-1000 ng/mL based on a 200 μL aliquot of human plasma.
PK Calculations: Area under the curve for a plot of plasma concentration v. time to last detectable concentration (AUC0-last), was calculated using a non-compartmental model and the Linear Up/Log Down calculation method in WinNonlin Version 4.1. Data points after Cmax were fitted to a biexponential equation (A*exp(−αt)+B*exp(−βt)) using WinNonlin v4.1, and AUC values were extrapolated to infinity according to the following equation: […]=AUC0-last+Clast/β, where Clast is the last detectable concentration and β comes from the above-noted biexponential equation. Observed maximum plasma concentration (Cmax), time of Cmax (Tmax), and plasma concentration at 12 hr post dosing (C12hr) were determined by inspection.

Series [4] is described as follows: Hygroscopicity by vapor sorption analysis. It counts as physicochemical. The note with it: equilibrated at 95% RH at 25° C. The method, then: Hygroscopicity data was obtained on a VTI Symmetrical Vapor Sorption Analyzer Model SGA-1. Data was collected at room temperature from 5-95% relative humidity and back, 5% relative humidity change per step. Equilibrium conditions were 0.01 weight percent change in 5 minutes with a maximum equilibration time of 180 minutes. […] When equilibrated back down to 5% RH, the material returned back to approximately its dry weight.

Setting [5] is: Compound A control group, oral 10 mg/kg (K salt), no atazanavir.
The mark [6] stands for this setting: oral Compound A 10 mg/kg (K salt) on day 4 with oral atazanavir 50 mg/kg once a day.
Setting [7] is: single oral 100 mg Compound A tablet, atazanavir 400 mg once daily, moderate-fat meal.

Like-named read-outs stand apart in the source and are kept apart here.

On to `COC(=O)N[C@H](C(=O)N[C@@H](Cc1ccccc1)[C@@H](O)CN(Cc1ccc(-c2ccccn2)cc1)NC(=O)[C@@H](NC(=O)OC)C(C)(C)C)C(C)(C)C` (relative stereo) [atazanavir, [3S-(3R*, 8′R*, 9′R*, 12R*)]-3,12-bis(1,1-dimethylethyl)-8-hydroxy-4,11-dioxo-9-(phenylmethyl)-6-[[4-(2-pyridinyl)phenylmethyl]2,5,6,10,13-pentaazatetradecanedioic] acid, dimethyl ester], for which, in series [1], the “inhibition of the glucuronidation of Compound A” value came to 41%.
Take `Cc1nnc(C(=O)NC(C)(C)c2nc(C(=O)NCc3ccc(F)cc3)c(O)c(=O)n2C)o1` [Compound A, N-(4-fluorobenzyl)-5-hydroxy-1-methyl-2-(1-methyl-1-{[(5-methyl-1,3,4-oxadiazol-2-yl)carbonyl]amino}ethyl)-6-oxo-1,6-dihydroxypyrimidine-4-carboxamide]: the “increase of plasma levels of Compound A by atazanavir” value in series [2] (atazanavir 50 mg/kg plus Compound A 10 mg/kg versus Compound A alone) is given as “about 3 fold”. Moreover, in series [2] (setting [5]), the AUC (in general, the area under the concentration-time curve, a measure of exposure) amounted to 2.9 ± 0.6 µM·h and the Cmax (commonly the peak of the concentration-time curve) was 2.3 ± 0.9 µM. In series [2] (setting [6]), the AUC was 9.9 ± 3.7 µM·h and the Cmax is 7.2 ± 6.1 µM. In addition, the half-life (as a rule, how long it takes for the measured level to halve) in series [3] (100 mg Compound A alone) was 1.1 h. Also, the half-life in series [3] (100 mg Compound A in the presence of atazanavir 400 mg once daily) is 1.4 h. Besides, in series [3] (setting [7]), the “AUC0-last GMR in the presence versus absence of atazanavir” value is reported as 1.73, the “Cmax GMR in the presence versus absence of atazanavir” value was 1.53 and the “geometric mean ratio (GMR) 12 hr concentration in the presence versus absence of atazanavir” value was determined as 1.96.
Regarding `Cc1nnc(C(=O)NC(C)(C)c2nc(C(=O)NCc3ccc(F)cc3)c([O-])c(=O)n2C)o1.[K+]`, in series [4], the “weight increase (hygroscopicity)” value stood at 1.8%.
